Data set [1] has as its system aEPSCs in hippocampal neurons. Nature of the data set: Autaptic excitatory postsynaptic currents (aEPSCs) in hippocampal microcultures. Format: cell-based, rat.
For data set [2], the target named is T1, heteromeric Kv7.2/Kv7.3 channels (UniProt O43526+O88944).
T1 construct: expressed in transfected cells; host or cells: tsA 201 cells
The data set can be described thus: Currents through recombinant Kv7 channels in tsA 201 cells, ramp hyperpolarizations, amplitude at −30 mV. Format: cell-based.

Data set [3] can be described thus: Plasma pharmacokinetics and therapeutic plasma levels of flupirtine (literature). It is filed as in vivo. As to conditions: after single doses.
In the next data set the target is T2, α5β3γ2S GABAA receptor (Rattus norvegicus, UniProt P18508+P19969+P63079).
T2 construct: expressed in transfected cells; host or cells: tsA 201 cells
The data set can be described thus: GABA-evoked currents through recombinant receptors in tsA 201 cells. Format: cell-based. As to conditions: 30 μM flupirtine, normalized to 30 μM GABA in solvent.

The subject of data set [4] is mIPSCs in hippocampal neurons. It is filed as cell-based, rat.
On the set-up of data set [5]: method as in Friedel and Fitton, 1993. As to conditions: ref Friedel and Fitton, 1993; cited from earlier work.
For data set [6] the following is noted: cited from earlier work.
In data set [7] the test system is untransfected tsA 201 cells. Nature of the data set: Control recordings in untransfected tsA 201 cells. It is filed as cell-based. As to conditions: control experiments. How it is done:
Primary cultures of rat hippocampal and DH neurons were prepared as described previously (Klinger et al., [2012]). Micro-island cultures were obtained as detailed elsewhere (Dorostkar and Boehm, [2007]). For heterologous expression of GABAA receptors and Kv7 channels, tsA 201 cells (a subclone of HEK 293 cells) were cultured in DMEM containing 1 g · L^−1 glucose and 10% heat-inactivated fetal calf serum. Cells were transfected using ExGen 500 or TurboFect according to the manufacturer's recommendations, with a transfection ratio of 1:1 for αβ receptors, 1:1:8 for αβγ or αβδ receptors and 1:1 for heteromeric Kv7.2/Kv7.3 channels. The day after transfection, cells were seeded at a low density and used for patch-clamp recordings 24–48 h after transfection.

In data set [8] the test system is GABAA receptors in DH neurons. Nature of the data set: GABA-evoked currents in dorsal horn neurons. It is filed as cell-based, rat. As to conditions: 3 μM GABA; concentration-dependent.
For data set [9], the system named is Kv7 channels in DH neurons. The data set can be described thus: K+ currents in dorsal horn neurons, ramp hyperpolarizations, amplitude at −30 mV. It is filed as cell-based, rat. As to conditions: 3 and 10 μM flupirtine; quantified at −30 mV.
A further data set has as its system Kv7 channels. More on the design: method as in Klinger et al., 2012. As to conditions: ref Klinger et al., 2012; read-out: EC50 for the facilitation of Kv7 channels; cited from earlier work.
Data set [10] has as its system aIPSCs in hippocampal neurons. The data set can be described thus: Autaptic inhibitory postsynaptic currents (aIPSCs) in hippocampal microcultures. It is filed as cell-based, rat.
The target of another data set is T3, α1β2γ2S GABAA receptor (Rattus norvegicus, UniProt P18508+P62813+P63138).
T3 construct: expressed in transfected cells; host or cells: tsA 201 cells
Nature of the data set: GABA-evoked currents through recombinant receptors in tsA 201 cells. It is filed as cell-based.

For data set [11], the system named is tonically active GABAA receptors in hippocampal neurons. Format: cell-based, rat.
Data set [12] deals with Kv7 channels in hippocampal neurons. Nature of the data set: K+ currents in hippocampal neurons, ramp hyperpolarizations, amplitude at −30 mV. It is filed as cell-based, rat.
Another data set addresses T4, α4β3δ GABAA receptor (Rattus norvegicus, UniProt P18506+P28471+P63079).
T4 construct: expressed in transfected cells; host or cells: tsA 201 cells
Nature of the data set: GABA-evoked currents through recombinant receptors in tsA 201 cells. It is filed as cell-based.

A further data set addresses T5, α3β3γ2S GABAA receptor (Rattus norvegicus, UniProt P18508+P20236+P63079).
T5 construct: expressed in transfected cells; host or cells: tsA 201 cells
Described as above. It is filed as cell-based. As to conditions: 30 μM flupirtine, normalized to 30 μM GABA in solvent, n.s. vs solvent.

The next data set has as its target T6, α4β3γ2S GABAA receptor (Rattus norvegicus, UniProt P18508+P28471+P63079).
T6 construct: expressed in transfected cells; host or cells: tsA 201 cells
Described as above. It is filed as cell-based. As to conditions: 30 μM flupirtine, normalized to 30 μM GABA in solvent.

The target of the next data set is T7, α4β3 GABAA receptor (Rattus norvegicus, UniProt P28471+P63079).
T7 construct: expressed in transfected cells; host or cells: tsA 201 cells
Described as above. Format: cell-based. As to conditions: 30 μM flupirtine, normalized to 30 μM GABA in solvent.

Data set [13] deals with αβ and γ-containing recombinant GABAA receptors. It is filed as cell-based, rat.
Data set [14] deals with T8, δ-containing GABAA receptors in DH neurons (Rattus norvegicus, UniProt P18506).
T8 construct: endogenous in cells; host or cells: primary cultured rat dorsal horn neurons
The data set can be described thus: THIP-evoked currents in dorsal horn neurons. Format: cell-based. As to conditions: 3 μM THIP; concentration-dependent; more pronounced than on GABA currents; at 10 μM larger than on K+ currents.

The target in a further data set is T9, α2β2γ2S GABAA receptor (Rattus norvegicus, UniProt P18508+P23576+P63138).
T9 construct: expressed in transfected cells; host or cells: tsA 201 cells
The data set can be described thus: GABA-evoked currents through recombinant receptors in tsA 201 cells. As to conditions: 30 μM flupirtine, normalized to 30 μM GABA in solvent, n.s. vs solvent. Format: cell-based.

Another data set concerns the target T10, α1β2 GABAA receptor (Rattus norvegicus, UniProt P62813+P63138).
T10 construct: expressed in transfected cells; host or cells: tsA 201 cells
The description is as above. It is filed as cell-based. As to conditions: 30 μM flupirtine, normalized to 30 μM GABA in solvent.

Another data set addresses T11, α1β2δ GABAA receptor (Rattus norvegicus, UniProt P18506+P62813+P63138).
T11 construct: expressed in transfected cells; host or cells: tsA 201 cells
The description is as above. It is filed as cell-based.

The target of data set [15] is T12, δ-containing GABAA receptors in hippocampal neurons (Rattus norvegicus, UniProt P18506).
T12 construct: endogenous in cells; host or cells: primary cultured rat hippocampal neurons
Nature of the data set: THIP-evoked currents in cultured hippocampal neurons. As to conditions: 30 μM flupirtine; 3 μM THIP; greater extent than 3 μM GABA in 5 mM penicillin. Format: cell-based.

The subject of data set [16] is native GABAA receptors in hippocampal neurons. Nature of the data set: GABA-evoked currents in cultured hippocampal neurons, perforated patch. Format: cell-based, rat. As to conditions: for GABA Emax (normalized) in the presence of flupirtine (30 μM) / GABA Emax (normalized), solvent: Hippocampus neurons.

“And” between values parts separate entries of the source, which are not always exact repeats. Identical values can stand only once. “Also recorded” adds a separate entry of the source. Like-named read-outs stand apart in the source and are kept apart here.

T11 sequence (P62813 28-455): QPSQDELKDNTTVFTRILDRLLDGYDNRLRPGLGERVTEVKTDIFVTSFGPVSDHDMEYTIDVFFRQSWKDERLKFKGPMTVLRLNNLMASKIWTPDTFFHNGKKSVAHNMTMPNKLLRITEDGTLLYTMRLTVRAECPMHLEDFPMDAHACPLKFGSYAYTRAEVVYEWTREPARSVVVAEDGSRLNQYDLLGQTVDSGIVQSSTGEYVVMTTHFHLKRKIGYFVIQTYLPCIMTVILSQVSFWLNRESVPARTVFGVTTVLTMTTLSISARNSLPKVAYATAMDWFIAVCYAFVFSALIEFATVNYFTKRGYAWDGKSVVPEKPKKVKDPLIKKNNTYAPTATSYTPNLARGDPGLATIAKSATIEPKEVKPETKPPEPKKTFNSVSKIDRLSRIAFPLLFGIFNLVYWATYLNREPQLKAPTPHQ
T11 sequence (P63138 25-474 limits assumed): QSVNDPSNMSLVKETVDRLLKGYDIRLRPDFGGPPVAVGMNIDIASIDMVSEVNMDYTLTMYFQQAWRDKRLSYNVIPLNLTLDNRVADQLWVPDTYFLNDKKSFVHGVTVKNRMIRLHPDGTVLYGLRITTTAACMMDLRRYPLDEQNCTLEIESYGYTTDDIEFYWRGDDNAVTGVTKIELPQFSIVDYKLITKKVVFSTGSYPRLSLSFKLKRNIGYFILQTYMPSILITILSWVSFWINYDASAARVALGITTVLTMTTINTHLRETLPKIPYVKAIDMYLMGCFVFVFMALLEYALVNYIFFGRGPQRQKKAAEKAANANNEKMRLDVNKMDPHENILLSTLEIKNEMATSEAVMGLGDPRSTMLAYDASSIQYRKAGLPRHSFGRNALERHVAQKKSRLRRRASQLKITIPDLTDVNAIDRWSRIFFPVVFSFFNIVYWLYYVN
T11 sequence (P18506 17-449 limits assumed): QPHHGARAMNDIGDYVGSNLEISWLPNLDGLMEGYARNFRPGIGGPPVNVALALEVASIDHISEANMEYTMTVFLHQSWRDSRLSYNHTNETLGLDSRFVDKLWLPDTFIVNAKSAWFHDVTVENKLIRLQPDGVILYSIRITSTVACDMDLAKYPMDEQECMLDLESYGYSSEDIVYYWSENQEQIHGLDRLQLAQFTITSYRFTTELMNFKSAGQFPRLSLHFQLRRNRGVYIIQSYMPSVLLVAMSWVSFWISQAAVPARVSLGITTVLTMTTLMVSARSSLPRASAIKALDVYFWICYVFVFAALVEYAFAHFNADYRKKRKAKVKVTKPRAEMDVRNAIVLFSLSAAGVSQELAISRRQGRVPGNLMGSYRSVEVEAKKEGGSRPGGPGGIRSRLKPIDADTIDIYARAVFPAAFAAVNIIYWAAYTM
T4 sequence (P28471 36-552): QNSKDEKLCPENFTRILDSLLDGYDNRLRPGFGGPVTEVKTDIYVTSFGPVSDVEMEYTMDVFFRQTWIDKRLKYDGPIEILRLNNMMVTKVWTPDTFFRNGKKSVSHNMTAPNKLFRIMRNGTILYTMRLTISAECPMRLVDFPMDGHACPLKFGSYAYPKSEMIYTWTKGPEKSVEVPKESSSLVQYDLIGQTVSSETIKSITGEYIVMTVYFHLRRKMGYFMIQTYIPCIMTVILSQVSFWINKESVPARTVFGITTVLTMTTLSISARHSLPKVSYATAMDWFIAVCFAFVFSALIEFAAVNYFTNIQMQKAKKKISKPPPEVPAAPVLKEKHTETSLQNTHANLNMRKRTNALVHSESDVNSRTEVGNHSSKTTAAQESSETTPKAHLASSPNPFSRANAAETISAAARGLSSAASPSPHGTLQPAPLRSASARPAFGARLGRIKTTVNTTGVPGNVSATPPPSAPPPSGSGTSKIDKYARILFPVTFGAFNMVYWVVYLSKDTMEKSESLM
T4 sequence (P63079 26-473): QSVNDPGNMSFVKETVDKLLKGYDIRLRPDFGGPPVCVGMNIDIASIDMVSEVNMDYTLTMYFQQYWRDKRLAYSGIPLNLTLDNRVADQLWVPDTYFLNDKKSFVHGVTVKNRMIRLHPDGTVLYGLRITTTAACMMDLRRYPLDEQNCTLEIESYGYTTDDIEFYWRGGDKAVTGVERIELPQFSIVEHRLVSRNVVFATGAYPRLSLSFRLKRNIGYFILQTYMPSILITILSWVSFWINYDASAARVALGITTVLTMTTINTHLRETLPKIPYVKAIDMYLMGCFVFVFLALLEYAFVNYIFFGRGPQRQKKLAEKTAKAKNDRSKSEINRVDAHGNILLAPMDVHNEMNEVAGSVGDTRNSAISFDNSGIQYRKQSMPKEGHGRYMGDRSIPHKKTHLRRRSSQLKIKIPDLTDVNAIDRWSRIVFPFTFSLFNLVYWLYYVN
T4 sequence (P18506 17-449 limits assumed): as the sequence (P18506 17-449 limits assumed) above
T3 sequence (P62813 28-455): as the sequence (P62813 28-455) above
T3 sequence (P63138 25-474 limits assumed): as the sequence (P63138 25-474 limits assumed) above
T3 sequence (P18508 39-466): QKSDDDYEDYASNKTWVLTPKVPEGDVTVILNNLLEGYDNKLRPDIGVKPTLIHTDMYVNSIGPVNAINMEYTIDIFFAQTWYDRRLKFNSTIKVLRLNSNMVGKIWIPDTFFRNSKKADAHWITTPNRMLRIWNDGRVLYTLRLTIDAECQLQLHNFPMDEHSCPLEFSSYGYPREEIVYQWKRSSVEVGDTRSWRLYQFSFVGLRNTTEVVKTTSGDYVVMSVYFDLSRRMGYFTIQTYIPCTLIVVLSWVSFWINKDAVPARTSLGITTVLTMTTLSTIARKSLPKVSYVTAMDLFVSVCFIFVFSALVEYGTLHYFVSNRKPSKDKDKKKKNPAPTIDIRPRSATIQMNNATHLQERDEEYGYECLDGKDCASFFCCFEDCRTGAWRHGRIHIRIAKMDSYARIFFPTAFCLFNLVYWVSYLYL
T2 sequence (P19969 32-464 limits assumed): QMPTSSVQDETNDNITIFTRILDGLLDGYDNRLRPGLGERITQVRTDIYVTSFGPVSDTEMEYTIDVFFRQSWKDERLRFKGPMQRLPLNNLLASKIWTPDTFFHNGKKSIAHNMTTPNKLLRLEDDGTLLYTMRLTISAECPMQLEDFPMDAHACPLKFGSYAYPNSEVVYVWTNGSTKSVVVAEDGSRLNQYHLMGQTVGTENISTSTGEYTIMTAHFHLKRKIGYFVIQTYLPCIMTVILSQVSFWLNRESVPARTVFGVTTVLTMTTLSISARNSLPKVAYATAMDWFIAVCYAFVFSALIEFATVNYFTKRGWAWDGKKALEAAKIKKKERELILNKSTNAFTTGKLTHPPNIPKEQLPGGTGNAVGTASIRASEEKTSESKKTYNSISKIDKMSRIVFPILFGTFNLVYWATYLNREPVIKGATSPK
T2 sequence (P63079 26-473): as the sequence (P63079 26-473) above
T2 sequence (P18508 39-466): as the sequence (P18508 39-466) above
T5 sequence (P20236 29-493): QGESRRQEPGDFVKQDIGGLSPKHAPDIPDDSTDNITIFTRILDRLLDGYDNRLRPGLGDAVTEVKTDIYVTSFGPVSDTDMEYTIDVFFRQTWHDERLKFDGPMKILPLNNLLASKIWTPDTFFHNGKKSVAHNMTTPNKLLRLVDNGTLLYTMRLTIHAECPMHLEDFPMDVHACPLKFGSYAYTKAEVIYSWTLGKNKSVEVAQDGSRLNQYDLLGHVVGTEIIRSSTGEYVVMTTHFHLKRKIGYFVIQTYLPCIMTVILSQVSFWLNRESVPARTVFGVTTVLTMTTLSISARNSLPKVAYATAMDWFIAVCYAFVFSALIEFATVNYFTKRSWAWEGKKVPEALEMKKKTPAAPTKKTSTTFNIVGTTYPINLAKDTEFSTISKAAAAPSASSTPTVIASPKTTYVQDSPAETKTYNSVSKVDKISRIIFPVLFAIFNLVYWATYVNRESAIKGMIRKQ
T5 sequence (P63079 26-473): as the sequence (P63079 26-473) above
T5 sequence (P18508 39-466): as the sequence (P18508 39-466) above
T9 sequence (P23576 29-451): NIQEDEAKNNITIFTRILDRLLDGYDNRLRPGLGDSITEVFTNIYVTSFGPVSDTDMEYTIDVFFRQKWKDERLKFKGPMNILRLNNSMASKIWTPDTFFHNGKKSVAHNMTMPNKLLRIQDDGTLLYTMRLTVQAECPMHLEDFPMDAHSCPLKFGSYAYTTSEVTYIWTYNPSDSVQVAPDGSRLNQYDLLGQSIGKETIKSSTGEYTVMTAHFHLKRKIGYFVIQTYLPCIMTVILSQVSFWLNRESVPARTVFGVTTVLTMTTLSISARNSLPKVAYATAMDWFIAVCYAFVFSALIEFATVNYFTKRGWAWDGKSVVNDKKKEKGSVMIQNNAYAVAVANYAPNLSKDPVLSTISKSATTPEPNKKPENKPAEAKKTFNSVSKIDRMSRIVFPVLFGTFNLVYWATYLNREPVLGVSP
T9 sequence (P63138 25-474 limits assumed): as the sequence (P63138 25-474 limits assumed) above
T9 sequence (P18508 39-466): as the sequence (P18508 39-466) above
T10 sequence (P62813 28-455): as the sequence (P62813 28-455) above
T10 sequence (P63138 25-474 limits assumed): as the sequence (P63138 25-474 limits assumed) above
T8 sequence (P18506 17-449 limits assumed): as the sequence (P18506 17-449 limits assumed) above
T12 sequence (P18506 17-449 limits assumed): as above
T7 sequence (P28471 36-552): as the sequence (P28471 36-552) above
T7 sequence (P63079 26-473): as the sequence (P63079 26-473) above
T6 sequence (P28471 36-552): as the sequence (P28471 36-552) above
T6 sequence (P63079 26-473): as the sequence (P63079 26-473) above
T6 sequence (P18508 39-466): as the sequence (P18508 39-466) above

Consider `N#Cc1cc2nc(O)c(O)nc2cc1[N+](=O)[O-]` [CNQX, cyano-2,3-dihydroxy-7-nitroquinoxaline], for which the “Effect on aEPSCs” value in [1] (10 μM CNQX) is listed as “blocked”.

Turning to `CCOC(=O)Nc1ccc(NCc2ccc(F)cc2)nc1N` [Flupirtine], the results for the “Effect of flupirtine on currents through Kv7 channels at −30 mV” value in [2] (3 μM flupirtine) and in data set [2] (10 μM flupirtine) were “enhanced” and “augmented”, respectively. In data set [3], the Free plasma concentrations was 1 to 2 µM. The “GABA Emax (normalized) in the presence of flupirtine (30 μM)” value on α5β3γ2S GABAA receptor came to 0.94 ± 0.06; on α1β2γ2S GABAA receptor (30 μM flupirtine, normalized to 30 μM GABA in solvent), 0.85 ± 0.02; at α4β3δ GABAA receptor (α4β3δ, 30 μM flupirtine, normalized to 30 μM GABA in solvent), 1.55 ± 0.06; at α3β3γ2S GABAA receptor, 1.93 ± 0.10 n.s; on α4β3γ2S GABAA receptor it was 1.63 ± 0.05; at α4β3 GABAA receptor it was 0.78 ± 0.02. The “GABA Emax (normalized) in the presence of flupirtine (30 μM)” value on α2β2γ2S GABAA receptor came to 2.54 ± 0.14 n.s; on α1β2 GABAA receptor, 0.71 ± 0.02; on α1β2δ GABAA receptor (α1β2δ, 30 μM flupirtine, normalized to 30 μM GABA in solvent), 2.27 ± 0.06; in data set [16] (30 μM flupirtine, normalized to 30 μM GABA in solvent, n.s. vs solvent) it was 1.25 ± 0.04 n.s; in [16] (5 mM penicillin plus 30 μM flupirtine, normalized to 30 μM GABA in penicillin plus solvent), 1.46 ± 0.03. In data set [4] (30 μM flupirtine, 0.5 μM tetrodotoxin plus 10 μM CNQX), the “Effect on all characteristics of mIPSCs (amplitudes, rise times, half widths)” value is listed as “remained unaltered”. For the same compound, the “Bound by plasma proteins” value in [5] was 80%. Besides, the Accumulation result in data set [6] (four regularly spaced oral doses a day, ref Friedel and Fitton, 1993) is reported as “more than twofold”. Further, in data set [6] (ref Friedel and Fitton, 1993), the Plasma half-life entry is listed as “about 10 h”. Besides, the Plasma concentrations entry in [6] (single dose of 200 mg, ref Hummel et al., 1991) is reported as “around 5 μM”. Moreover, in data set [7], the “Effect on currents in untransfected cells” value is listed as “failed to enhance any type of current”. Moreover, in data set [8], the “Effect of flupirtine on GABA-induced currents” value was “enhanced”. The “Effect of flupirtine on K+ currents” value in data set [9] is on record as “enhanced”. Also, the EC50 is 5 µM in the data set with Kv7 channels; 12 µM in [10] (Rattus norvegicus, Hippocampal neuron, n = 6, read-out: EC50 for the effect on aIPSC charge transfer); 7 µM on α4β3δ GABAA receptor; 108 µM at α1β2δ GABAA receptor. In [10], the “Effect on aIPSC peak amplitudes” value is given as “unaltered”. For the same compound, the “Effect of flupirtine on GABA-evoked currents” value at α1β2γ2S GABAA receptor (10 μM flupirtine) is recorded as “augmented”; at α4β3δ GABAA receptor (α4β3δ, 3 μM flupirtine, 1 μM GABA), “potentiated”; at α4β3δ GABAA receptor (α4β3δ, 10 μM flupirtine) it was “augmented”; at α1β2δ GABAA receptor, “potentiated; also recorded: augmented”; in data set [16] (3 μM flupirtine, presence of penicillin), “enhanced”; in data set [16] (10 μM flupirtine, absence of penicillin) it was “increased”. Moreover, in data set [16] (10 μM flupirtine, presence of penicillin, more pronounced than on the other currents), the “Effect of flupirtine on GABA-evoked currents” value was “increased”. For the same compound, the “Effect on holding currents” value in data set [11] (30 μM flupirtine, −70 mV) is “shifted towards more negative values”. The “Effect on amplitudes of bicuculline-sensitive tonic currents” value in [11] (3 to 30 μM flupirtine, concentration-dependent) was “enhanced”. For the same compound, the “Effect of flupirtine on K+ currents at −30 mV” value in data set [12] (3 μM flupirtine) is listed as “enhanced”; in data set [12] (10 μM flupirtine), “increased”. In addition, the “Maximum of flupirtine effect on GABA-evoked currents (normalized to solvent)” value turned out to be 1.5 at α4β3δ GABAA receptor (α4β3δ, 1 μM GABA, fixed to the highest value determined) and 28.8 on α1β2δ GABAA receptor. Also, the “Reduction of maximal current amplitudes” value in data set [13] is given as 18 to 35%. In addition, the “Effect of flupirtine on THIP-induced currents” value in data set [14] is recorded as “enhanced”; in data set [15] it was “augmented”. The “Effect on aEPSCs” value in data set [1] (aIPSCs (former) vs aEPSCs (latter)) is given as “only the former ones were affected”. Moreover, the “Maximal increase in GABA-evoked current amplitudes (factor)” value was ~9 and > 8 in data set [16]; 2.5 and < 3 in data set [16] (3 μM GABA in solvent, no penicillin).

As to `NCCCC(=O)O` [GABA], the “GABA Emax (normalized), solvent” value in data set [16] (5 mM penicillin present, normalized to 30 μM GABA in penicillin plus solvent) was 1.02 ± 0.02; in [16] (solvent, normalized to current by 30 μM GABA in solvent), 1.33 ± 0.03.

For `Cc1ncc2n1-c1ccc(Cl)cc1C(c1ccccc1F)=NC2` [midazolam], in data set [4] (3 μM midazolam), the “Effect on half widths of mIPSCs” value is reported as “increased” and the “Effect on mIPSC amplitudes or rise times” value is listed as “without altering”. In addition, the “Effect on holding currents” value in data set [11] (3 μM midazolam) is reported as “slight shift of holding currents in an inward direction”.

Take penicillin: the “Effect on mIPSCs” value in [4] (5 mM penicillin) is “abolished”. The “Effect on holding currents” value in [11] (5 mM penicillin) was “did not affect”. In addition, the “Effect on maximal amplitudes of GABA-evoked currents” value in [16] (5 mM penicillin) is given as “significantly reduced”.

As a reminder, the EC50 is the concentration needed to bring the measured effect to its halfway point.
